Experimental data from patent US20240238314A1, “TREATMENT OF ESSENTIAL TREMOR” (Sage Therapeutics, Inc., priority 2021, published 2024).

Test system: individuals with essential tremor
Assay: Phase 2 study, Compound 1 60 mg once daily for 28 days: TETRAS ADL total score
Format: in vivo, human
From the text: As used herein, “The Essential Tremor Rating Assessment Scale (TETRAS) activities of daily living (ADL) subscale total score” refers to an assessment scale for essential tremor developed by The Tremor Research Group (Elble, R. J., J. Neurol. Neuromedicine 1(4):34-38 (2016); Elble, R. J. et. al., Mov. Disord. 27(12); 1567-1569 (2012)). The TETRAS ADL subscale includes 12 metrics or characteristics, wherein each metric or characteristic is scored 0, 1, 2, 3, or 4 based on the severity of the characteristic present in the subject. Scores for each of the 12 characteristics are then added to give a total score of no greater than 48. The 12 characteristics scored in the TETRAS ADL subscale total score include:
Participants were 18 to 80 years of age, inclusive, diagnosed of ET of at least 3 years duration with scores of at least 1.5 for each of the six items that comprised the combined total upper limb TETRAS (total performance subscale part 4) with the total score for the dominant upper limb (the sum of the 3 items for either the right or left upper limb, whichever is dominant) being at least 5.5, at both Screening and predose on Day 1.
Participants were randomized to receive Compound 1 60 mg or placebo once daily in the morning on a 1:1 basis. If participants reported a TEAE considered by investigator to be related to Compound 1 and not tolerable, investigator might reduce the dose of Compound 1 from 60 mg in 15 mg decrements (i.e., 60 mg, to 45 mg, to 30 mg), as medically appropriate. If intolerable TEAEs persist at the 30 mg dose, Compound 1 was permanently stopped.
This study included a Screening Period of up to 28 days, a 29-day treatment period consisting of 28 days of dosing with the end of treatment visit intended to be on Day 29 at trough, and a 14-day follow-up period relative to final dose. Study patients were not taking other medications for essential tremor during the 28-day treatment period.
Similarly, an MMRM was be used for the analysis of the following variables: changes from baseline in TETRAS performance subscale part 4, 6, 7, and 8 combined score, and TETRAS ADL score. For each model, the comparison of interest was between Compound 1 tablets and matching placebo at the 15-day time point. Model-based point estimates (i.e., LS means), 95% confidence intervals, and p-values were reported.

[1] = Baseline TETRAS ADL < 28, Day 29
[2] = Baseline TETRAS ADL ≥ 28, Day 29

COC[C@@]1(O)CC[C@H]2[C@@H](CC[C@@H]3[C@@H]2CC[C@]2(C)[C@@H](C(=O)Cn4nnc(C)n4)CC[C@@H]32)C1 [Compound 1]
LSMean (SE) CFB in TETRAS ADL total score [1]: −2.84 | LSMean Difference (CI) vs placebo in CFB in TETRAS ADL total score [1]: −1.17 | Mean (SD) % CFB in TETRAS ADL total score [1]: −16.52% | LSMean (SE) CFB in TETRAS ADL total score [2]: −5.67 | Mean (SD) % CFB in TETRAS ADL total score [2]: −18.10% | Model-based LSMean (SE) change from baseline in TETRAS ADL total score (Full Analysis Set, Day 8): −5.34 (0.845) | LSMean difference vs placebo in change from baseline in TETRAS ADL total score (Full Analysis Set, Day 15): −2.95 | Model-based LSMean (SE) change from baseline in TETRAS ADL total score (Full Analysis Set, Day 15): −5.43 (0.945) | LSMean difference vs placebo in change from baseline in TETRAS ADL total score (Full Analysis Set, Day 22): −2.56 | Model-based LSMean (SE) change from baseline in TETRAS ADL total score (Full Analysis Set, Day 22): −5.24 (0.904) | Mean (SD) % CFB in TETRAS ADL total score (Full Analysis Set, Day 29): −17.4% | Model-based LSMean (SE) change from baseline in TETRAS ADL total score (Full Analysis Set, Day 29): −4.24 (0.940) | LSMean difference vs placebo in change from baseline in TETRAS ADL total score (Full Analysis Set, Day 29, listed as Cmpd 1): −1.37 | LSMean difference vs placebo in change from baseline in TETRAS ADL total score (Full Analysis Set, Day 42): 1.13 | Model-based LSMean (SE) change from baseline in TETRAS ADL total score (Full Analysis Set, Day 42): −2.14 (0.905)
